The record followed here is US4839343A, “Preparation containing hexatriacontapeptides and methods of use” (Debiopharm, S.A., priority 1987, dated 1989).

In assay [1] the test system is patient seriously affected by bacteremic (endotoxic) shock. The assay is described as follows: Treatment of patient with bacteremic (endotoxic) shock by intravenous peptide infusion. The class given is in vivo, human. Here is the method:
A patient seriously affected by bacteremic (endotoxic) shock was admitted in an intensive care unit and treated with dopamine given intravenously at doses of 10 and 20 mcg/kg/min.
A solution of NPY was then given by intravenous infusion at increasing doses of 0.01 to 50 pmol/kg/min over a period of 10 hours.

The test system of assay [2] is Normotensive male Wistar rats. The assay is described as follows: Endotoxin-induced blood pressure fall in adrenal-demedullated conscious rats, i.v. NPY infusion. The class given is in vivo, rat. How it is done: Normotensive male Wistar rats were subjected to adrenal demedullation on the right side and either adrenolectomized or sham-operated on the left side. Ten days later a solution of NPY in non-alkaline saline was given as an intravenous infusion (70 ng/min) to these conscious semi-restrained animals. A group of control animals received only the saline diluent. During the last 75 minutes of the experiment, endotoxin (LPs E. Coli 0111: B4, 10 mcg/min i.v.) was administered both in NPY-treated and control animals.

The test system of assay [3] is Conscious normotensive rats. The assay is described as follows: Pressor response to norepinephrine in conscious normotensive rats infused with endotoxin and/or NPY. The class given is in vivo, rat. How it is done:
Conscious normotensive rats were divided into six groups. Rats of Group II and IV were infused intravenously with NPY (0.1 mcg/min for 75 min). A further two groups of rats (I and III) received the vehicle of the peptide ([…]) for the same period. Escherichia Coli endotoxin (lipopolysaccharide E. Coli 0.111: B4, Difco Laboratories, Detroit, MI), 10 mcg/10 mcl/min was infused starting 15 min after the beginning of the NPY-infusion (Group IV) or its vehicle (Group III). The remaining rats (Groups I and […]) were given the vehicle of endotoxin, 10 mcl/min i.v. In all these rats, a dose-response curve to intravenous injections of norepinephrine was obtained 5 min after ending the administration of NPY. The infusion of endotoxin or its vehicle was continued throughout this period. In two additional groups rats infused for 45 min with endotoxin or its vehicle, a 2 ml blood sample was obtained via the arterial catheter for determination of plasma NPY levels.
The endotoxin was dissolved in 0.9% NaCl to achieve a concentration of […]. NPY was diluted with 0.1M HCl to a concentration of 10 mg/l. Aliquots containing 15 mcg were stored frozen at -70° C. and thawed immediately before use. The different solutions were infused using a syringe pump (Model 455, Sage Instrument, White Plains, NY). Norepinephrine (Arterenol, Hoechst, Frankfurt-am-Main, FRG) was diluted in 0.9% NaCl to attain a concentration of 20 ng/20 mcl. Using a 250 mcl glass syringe (Hamilton), the dose of norepinephrine was increased by altering the volume injected.

As to `NCCc1ccc(O)c(O)c1` [dopamine, reference compound], the “arterial pressure of the patient under dopamine alone” value in assay [1] (dopamine i.v. 10 and 20 mcg/kg/min, before NPY) is listed as “continued to fall”.

For neuropeptide Y [NPY], the “reduction of intraarterial mean blood pressure during endotoxin infusion” value in assay [2] (NPY 70 ng/min i.v. infusion, endotoxin 10 mcg/min i.v. for last 75 min, 12 rats, baseline 116±1.6 mm Hg, controls dropped 40±6.4 mm Hg, 2 of 9 died) came to 8±2.1 mm Hg. For the same compound, in assay [2] (another group of rats, NPY 70 ng/min i.v., no endotoxin), the “effect of NPY infusion alone on blood pressure” value was “no significant effect on blood pressure”. Further, the “pressor effects of norepinephrine after NPY infused alone (Group II) versus control (Group I)” value in assay [3] (NPY 0.1 mcg/min i.v. 75 min, norepinephrine 20, 40, 80, 160 ng, p<0.001, <0.01, <0.001, <0.05) is “significantly enhanced”. Further, in assay [3] (NPY 0.1 mcg/min i.v. 75 min plus endotoxin, all norepinephrine doses tested), the “blood pressure response to norepinephrine in endotoxin plus NPY rats (Group IV) versus control rats (Group I)” value is given as “no longer any significant difference”. Moreover, the “blood pressure response to norepinephrine in endotoxin-treated rats (Group IV) versus endotoxin alone (Group III)” value in assay [3] (NPY 0.1 mcg/min i.v. 75 min plus endotoxin, norepinephrine 20, 40, 80, 160 ng i.v., p<0.05, <0.01, <0.01, <0.05) is “significantly greater than in those animals receiving endotoxin alone”. Further, the “effect on blood pressure or heart rate before norepinephrine injections” value in assay [3] (NPY 0.1 mcg/min i.v. for 75 min, alone or in combination with endotoxin 10 mcg/min) is recorded as “no significant effect on blood pressure or heart rate”. Besides, the “duration of NPY-induced facilitation of norepinephrine evoked changes in blood pressure” value in assay [3] (last norepinephrine dose given 50 min after stopping the NPY infusion) is “long-lasting”. For the same compound, in assay [1] (NPY i.v. infusion 0.01 to 50 pmol/kg/min over 10 hours, each time tachycardia was observed), the “effect on concomitant dopamine dose” value is “allowed a decrease in the dose of dopamine”. Besides, in assay [1] (NPY i.v. infusion, increasing doses 0.01 to 50 pmol/kg/min over 10 hours, with dopamine), the “arterial pressure of the patient” value is “normalization of arterial pressure”.
